Experimental data taken from ChEMBL document CHEMBL1148932, “Cyanopeptolin 963A, a chymotrypsin inhibitor of Microcystis PCC 7806” (J Nat Prod, 2004).
Active and inactive are the calls of the source. The calls are words filed in the database; no cut-off is given here.

Experiments:
[1] = Inhibition of alpha-chymotrypsin in bovine pancreas; design: species or system Bos taurus
Sus scrofa = species on record: Sus scrofa; test: Inhibition of trypsin in pig pancreas at 15 uM
Cathepsin B (Bos taurus) = Cathepsin B (Bos taurus) (UniProt P07688); test: Inhibition of cathepsin B in bovine spleen at 15 uM

Row | Compound | IC50 [1] [nM] | Activity (Sus scrofa) | Activity (Cathepsin B (Bos taurus))
1 | CCCCCC(=O)N[C@@H](CC(=O)O)C(=O)N[C@@H]1C(=O)N[C@@H](Cc2ccc(O)cc2)C(=O)N[C@H]2CC[C@@H](O)N(C2=O)[C@@H](CC(C)C)C(=O)N(C)[C@@H](Cc2ccccc2)C(=O)N[C@@H](C(C)C)C(=O)O[C@@H]1C [CYANOPEPTOLIN 963A] | 900 | inactive | inactive
2 | CC[C@H](C)[C@@H]1NC(=O)[C@H](Cc2ccc(O)cc2)N(C)C(=O)[C@H](Cc2ccccc2)N2C(=O)[C@H](CC[C@H]2O)NC(=O)[C@H](Cc2ccccc2)NC(=O)[C@@H](NC(=O)[C@@H](O)COP(=O)(O)O)[C@@H](C)OC1=O [MICROPEPTIN T 20] | 2.5 | – | –
